Experimental data: PubChem BioAssay (NCI)
Several values for one entry are separate records, joined by “and”; a condition that tells them apart may be missing. Equal values may be shown once.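 Interpolation was linear, between the two tested concentrations surrounding the appropriate level; five concentrations were tested over 48 hours in 96-well plates. GI50: concentration for 50% inhibition of growth. Definition used: TGI = concentration required for complete inhibition of growth.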

Assays:
Assay in all cases: inhibition of tumour cell growth, NCI panel, 48 h
SF-295 CNS = system: SF-295 CNS
SK-OV-3 ovarian = system: SK-OV-3 ovarian
EKVX NSCLC = system: EKVX NSCLC
OVCAR-5 ovarian = system: OVCAR-5 ovarian
NCI-H23 lung = system: NCI-H23 lung
HCC-2998 colon = system: HCC-2998 colon
NCI-H226 lung = system: NCI-H226 lung
SR leukemia = system: SR leukemia
TK-10 renal = system: TK-10 renal
NCI/ADR-RES ovarian = system: NCI/ADR-RES ovarian

| SMILES | GI50 (SF-295 CNS) | TGI (SF-295 CNS) | GI50 (SK-OV-3 ovarian) | TGI (SK-OV-3 ovarian) | GI50 (EKVX NSCLC) | TGI (EKVX NSCLC) | GI50 (OVCAR-5 ovarian) | TGI (OVCAR-5 ovarian) | GI50 (NCI-H23 lung) | TGI (NCI-H23 lung) | GI50 (HCC-2998 colon) | TGI (HCC-2998 colon) | GI50 (NCI-H226 lung) | TGI (NCI-H226 lung) | TGI (SR leukemia) | TGI (TK-10 renal) | GI50 (TK-10 renal) | GI50 (SR leukemia) | TGI (NCI/ADR-RES ovarian) | GI50 (NCI/ADR-RES ovarian) |
| --- | --- | --- | --- | --- | --- | --- | --- | --- | --- | --- | --- | --- | --- | --- | --- | --- | --- | --- | --- | --- |
| COc1cccc(OC(=O)c2ccc(C(F)(F)F)nc2Nc2c(C)cccc2Cl)c1 | 17.1 µM | 48.5 µM | 32.9 µM | > 100 µM | 36.1 µM | > 100 µM | 3.13 µM | 21.2 µM | 1.84 µM | 19 µM | 4.63 µM | 32.3 µM | 47.7 µM | > 100 µM |  |  |  |  |  |  |
| C=C1C2C[C@@H]3OC4CC5O[C@]6(CC5OC4C(C)C3OC(=O)CC3CC[C@@H]4OC5C7OC8C[C@](CCC9CC(=C)[C@H](CCC(C[C@H]1C)O2)O9)(OC7C4O3)O[C@@H]85)C[C@@H]1O[C@@]2(CC(C)[C@@H]3OC(CC(=O)CCO)C(O)C[C@@H]3O2)CC(C)[C@@H]1O6 (some centres not stated) |  | < 0.001 µM |  | 0.905 µM |  |  |  | 0.562 µM |  | < 0.001 µM |  | < 0.001 µM |  | < 0.001 µM | 1.24 µM |  |  |  |  |  |
| C#CCN(N=O)C(=O)NCCCCC(NC(=O)OCc1ccccc1)C(=O)OCc1ccccc1 (configuration not stated) |  | > 100 µM |  | > 100 µM |  | > 100 µM |  | > 100 µM |  | > 100 µM |  | > 100 µM |  | > 100 µM |  | > 100 µM |  |  |  |  |
| COc1ccc(-c2nsc3c2NC(=O)CC3c2ccc3c(c2)OCCO3)cc1 (configuration not stated) | 0.434 µM | > 33.2 µM | 0.476 µM | 8.46 µM |  |  | 10.2 µM | > 100 µM | 1.38 µM | > 100 µM | 1.38 µM | 19.5 µM | 5.19 µM | > 26.6 µM | > 100 µM | > 100 µM | 1.87 µM | 0.301 µM |  |  |
| COC1=CC(=O)C(Br)=CC1=O |  |  |  | > 100 µM |  | 44.8 µM |  |  |  | 40.8 µM |  | > 100 µM |  |  |  | 35.8 µM |  |  |  |  |
| Cn1cnc([N+](=O)[O-])c1Sc1nnnn1C |  | > 100 µM |  | > 100 µM |  | 40.8 µM |  | 45.2 µM |  | 34.7 µM |  | 51.2 µM |  | > 100 µM | 28.2 µM | 31.4 µM |  |  |  |  |
| O=C(N/C(=C\c1c(O)ccc2ccccc12)c1nc2ccccc2[nH]1)c1ccccc1 |  |  |  | > 100 µM |  | > 100 µM |  | > 100 µM |  | > 100 µM |  | > 100 µM |  |  |  | > 100 µM |  |  |  |  |
| CC1(C)OC2CC3COC(=O)C3CC2O1 (configuration not stated) |  | > 100 µM |  | > 100 µM |  | > 100 µM |  | > 100 µM |  | > 100 µM |  | > 100 µM |  | > 100 µM | > 100 µM | > 100 µM |  |  |  |  |
| CCC[CH2][Sn]([CH2]CCC)([CH2]CCC)[O]C(=O)C(OC(C)=O)c1ccccc1 (configuration not stated) | 0.163 µM | 0.301 µM | 0.12 µM | 0.273 µM | 0.0528 µM | 0.21 µM | 0.086 µM | 0.222 µM | 0.131 µM | 0.262 µM | 0.0999 µM | 0.216 µM | 0.178 µM | 0.336 µM |  | 0.888 µM | 0.244 µM |  |  |  |
| CCN(CC)CCC(=O)OC1C(C)=CC(C)C(=O)CC(C(C)CC2CCC(O)C(OC)C2)OC(=O)C2CCCCN2C(=O)C(=O)[C@@]2(O)OC(CCC2C)CC(OC)\C(C)=C/C=C/C=C/C(C)CC(C)C(=O)C1OC (some centres not stated) |  | 18.5 µM |  | 19.4 µM |  | 17.1 µM |  | 25.6 µM |  | 26.4 µM |  | 21.8 µM |  | 26.8 µM |  | 23.2 µM |  |  | 25.8 µM |  |
| C/C(=N\NC(=O)CC#N)C(CN1CCCCC1)C(c1ccccc1)c1c(O)c2ccccc2oc1=O (configuration not stated) |  |  |  | > 100 µM |  | > 100 µM |  | > 100 µM |  | > 100 µM |  | > 100 µM |  | > 100 µM |  | > 100 µM |  |  | > 100 µM |  |
| COc1cccc2c1C(=O)c1c(O)c3c(c(O)c1C2=O)C[C@@](O)(C(C)=O)C[C@@H]3OC1CC([N+]([O-])(Cc2ccccc2)Cc2ccccc2)C(O)C(C)O1 (some centres not stated) |  | 2.88 µM |  | 17.2 µM |  | 3.47 µM |  | 3.22 µM |  | 2.58 µM |  | 3.07 µM |  |  |  | 3.37 µM |  |  |  |  |
| Nc1ncnc2c1sc(=S)n2-c1ccccc1 |  | > 100 µM |  | > 100 µM |  | > 100 µM |  | > 100 µM |  | > 100 µM |  | > 100 µM |  | > 100 µM | > 100 µM | > 100 µM |  |  |  |  |
| O=C1NC(=O)C(=Cc2c3ccccc3cc3ccccc23)C(=O)N1 |  |  |  | > 100 µM |  |  |  |  |  | > 100 µM |  |  |  |  |  | > 100 µM |  |  |  |  |
| COc1cc2c(c(O)c1C)C(=O)CC(c1ccccc1)O2 (configuration not stated) |  | > 10 µM |  | > 100 µM |  | > 100 µM |  | > 100 µM |  | > 100 µM |  | > 100 µM |  | 41.5 µM |  | 77.3 µM |  |  |  |  |
| S=c1nc(C(c2ccccc2)c2ccccc2)[nH][nH]1 |  | > 100 µM |  | > 100 µM |  | > 100 µM |  | > 100 µM |  | > 100 µM |  | > 100 µM |  | > 100 µM |  | > 100 µM |  |  |  |  |
| CSC(=Nc1ccccc1Cl)NC(=O)c1ccc(Br)cc1 |  | > 100 µM |  | > 100 µM |  | > 100 µM |  | > 100 µM |  | > 100 µM |  | > 100 µM |  | > 100 µM | > 100 µM | > 100 µM |  |  |  |  |
| COc1cccc(Sc2ccc([N+](=O)[O-])c3no[n+]([O-])c23)c1 | 24.5 µM | 62.8 µM | 29.8 µM | > 77.7 µM | 14.8 µM | 39.5 µM | 8.31 µM | 20.2 µM | 7.14 µM | 25 µM | 22.3 µM | 46.3 µM | 18.2 µM | 53.5 µM |  | 24.7 µM | 10.9 µM |  | 19.1 µM | 5.97 µM |
| O=C1C=C2C=CC3CC2(O1)C1CCCCN31 (configuration not stated) |  | > 100 µM and 76.1 µM |  | > 100 µM and 58 µM and 90.6 µM | 14.1 µM and 11.6 µM and 38.6 µM | 57.4 µM and 35.5 µM and > 100 µM | 34.7 µM and 25.9 µM and > 100 µM | > 100 µM | 19.9 µM and 15 µM and 31.7 µM | 56.7 µM and 43.5 µM and > 100 µM |  | 40.9 µM and 42.4 µM and 86.4 µM | 19.7 µM and 6 µM and 51.7 µM | > 100 µM and 45.3 µM |  | 79 µM and 41.4 µM and > 100 µM | 17.3 µM and 13.6 µM and 31 µM |  | 61.2 µM and 43.4 µM and > 100 µM | 21.3 µM and 16.8 µM and 35.4 µM |
| COC1=CC(=O)C2C(C1=O)[C@@H]1c3ccccc3OC(C)(C)[C@H]21 (some centres not stated) |  | > 100 µM |  | > 100 µM |  | 88.1 µM |  | > 100 µM |  | 36.9 µM |  | > 100 µM |  | 54.7 µM |  | 38.6 µM |  |  |  |  |
